In patent publication US20250290915A1, “METHOD FOR PREDICTING RESPONSIVENESS TO THERAPY” (CANCERTAIN LIMITED, priority 2022, published 2025):

Tests used:
[1] = tested on: Circulating Tumour Cells (CTCs) from a patient with renal cancer; assay: Drug response score assay on CTCs (with CD45+ cells for immunotherapy) from blood, Example 7; type: cell-based, human; parameters: key to Drug response score, conc. 1 / Drug response score, conc. 2 / Drug response score, conc. 3 / Drug response score, conc. 4: normalized drug response metric per Gupta et al. 2020; settings: for Drug response score, conc. 1: conc. 1: Pembr 20 μg/ml (CTCs + CD45+ cells), Docetax 0.02 μg/ml, Gemcit 2 μg/ml, Topo 5 μg/ml, Etop 1 μg/ml, Eribul 5 μg/ml (CTCs); for Drug response score, conc. 1 / Drug response score, conc. 2 / Drug response score, conc. 3 / Drug response score, conc. 4: t96h; for Drug response score, conc. 2: conc. 2: Pembr 40 μg/ml (CTCs + CD45+ cells), Docetax 0.2 μg/ml, Gemcit 10 μg/ml, Topo 10 μg/ml, Etop 4 μg/ml, Eribul 10 μg/ml (CTCs); for Drug response score, conc. 3: conc. 3: Pembr 100 μg/ml (CTCs + CD45+ cells), Docetax 2 μg/ml, Gemcit 20 μg/ml, Topo 50 μg/ml, Etop 20 μg/ml, Eribul 20 μg/ml (CTCs); for Drug response score, conc. 4: conc. 4: Pembr 160 μg/ml (CTCs + CD45+ cells), Docetax 10 μg/ml, Gemcit 40 μg/ml, Topo 100 μg/ml, Etop 100 μg/ml, Eribul 40 μg/ml (CTCs); for effectiveness on Circulating Tumour Cells under laboratory conditions / Drug sensitivity as calculated by the assay (interpretation of Drug Response Scores): renal cancer CTCs; for Drug sensitivity as calculated by the assay (interpretation of Drug Response Scores): Table 23
Method: (§1) CD45^+ cells and circulating tumour cells (CTCs) were isolated from a blood sample provided by each subject.
(§2) CD45 separation was performed by adding human CD45 microbeads (50 μl/ml blood), incubating for 15 minutes at 4° C. and then processing using an AutoMACS machine. This separates the blood sample into CD45^+ and CD45^−cells in 2 separate falcons. The falcon tubes are then centrifuged at 1200 rpm for 5 minutes.
The supernatant was removed from the CD45^+falcon tube, and the cells resuspended in DMEM with 2 μl Cell Tox, 2 μl MT and 2 μl MT. 20 μl of the resuspended CD45^+ cells was then plated in each well which will contain an immunotherapy treatment.
(§3) The supernatant was removed from the CD45^−falcon tube, and the CD45^−cells contacted with 100 μl of FcR block and 100 μl of CD326 (EpCAM) MicroBeads, followed by incubation at […] 4° C. for 30 minutes. The CD45^−cells were then processed using an AutoMACS machine to separate the EpCAM positive and negative cells into 2 separate falcon tubes. The EpCAM-cells were discarded. The supernatant was removed from the EpCAM^+ cells, and the cells resuspended in DMEM with 2 μl Cell Tox, 2 μl MT and 2 μl MT. 20 μl of the resuspended pellet was then added to all sample wells excluding a blank. After all wells are added to, a cell count was conducted on the […] to determine the number of circulating tumour cells (CTCs).
(§4) The different cell types were each divided equally into populations, depending on the number of drugs/concentrations to be tested and plated on a cell-culture plate pre-coated with a scaffold of polycaprolactone (PCL) electrospun fibres and incubated at 37° C., 5% CO2, for 5 to (typically 10) minutes to facilitate cell attachment. After attachment, an initial imaging step was carried out using the RealTime-Glo™ MT assay from Promega (Catalogue No. G9711)) and the CellTox™ Green Cytotoxicity Assay (Promega, Catalogue No. G8741), carried out according to manufacturer's instructions. Following this initial imagining, the immunotherapeutic and/or chemotherapeutic agents were added to the cell populations as indicated below. After 10 minutes, the imagining step was repeated. The cell populations were then incubated at 37° C., 5% CO2 for 48 hours. The imaging step was then repeated. The cell populations were then re-dosed with the same immunotherapeutic and/or chemotherapeutic agents as indicated below, and incubated at 37° C., 5% CO2 for a further 48 hours. After this second 48 hour incubation, the imagining step was repeated for a final time.
(§5) At the end of this culture period, dose response scores were calculated using a normalized drug response metric as described in Gupta et al. (Communications Biology volume 3, Article number: 42 (2020), https://doi.org/10.1038/s42003-020-0765-z). The start readout for a given immunotherapeutic or chemotherapeutic agent at a given concentration was the to readout for said immunotherapeutic or chemotherapeutic agent at a specified concentration. The end readout for a given immunotherapeutic or chemotherapeutic agent at a given concentration was the final timepoint reading (t96h) for said immunotherapeutic or chemotherapeutic agent at a specified concentration.
(§6) The positive control start readout for a given drug/concentration was the to readout for the corresponding drug at a specified concentration. The positive control end readout for the corresponding drug at a specified concentration was the final timepoint reading (t96h) for the corresponding blank well.
(§7) The negative control start and end readouts for a given immunotherapeutic or chemotherapeutic agent at a given concentration were the to and final timepoint reading (t96h) respectively for blank cell or blank immuno cell well respectively.
The sensitivity or resistance of a subject's cancer to a given immunotherapeutic or chemotherapeutic agent was determined based on the calculated drug response score as shown in Table 2. […]

[2] = tested on: Circulating Tumour Cells (CTCs, EpCam+CD45−) from a patient with stage II synovial sarcoma; assay: Drug response score assay (RealTime-Glo MT / CellTox Green, PCL scaffold) on CTCs from blood, Example 1; type: cell-based, human; parameters: key to Drug response score, conc. 1 / Drug response score, conc. 2 / Drug response score, conc. 3 / Drug response score, conc. 4: normalized drug response metric per Gupta et al. 2020; settings: for Drug response score, conc. 1: conc. 1: Doxo 10 ng/ml, Ifos 0.125 μg/ml, Gemcit 2 μg/ml, Doce 0.02 μg/ml, Carbo 2 μg/ml, Dacarb 1.5 μg/ml, re-dosed at 48 h; for Drug response score, conc. 1 / Drug response score, conc. 2 / Drug response score, conc. 3 / Drug response score, conc. 4: CTCs, t96h; for Drug response score, conc. 2: conc. 2: Doxo 30 ng/ml, Ifos 0.25 μg/ml, Gemcit 10 μg/ml, Doce 0.2 μg/ml, Carbo 5 μg/ml, Dacarb 3 μg/ml; for Drug response score, conc. 3: conc. 3: Doxo 90 ng/ml, Ifos 5 μg/ml, Gemcit 20 μg/ml, Doce 2 μg/ml, Carbo 10 μg/ml, Dacarb 6 μg/ml; for Drug response score, conc. 4: conc. 4: Doxo 270 ng/ml, Ifos 10 μg/ml, Gemcit 40 μg/ml, Doce 10 μg/ml, Carbo 20 μg/ml, Dacarb 12 μg/ml; for Drug sensitivity as calculated by the assay (interpretation of Drug Response Scores): Table 5
Method: as §1, §2, §3, §4, §5, §6, §7
The sensitivity or resistance of a subject's cancer to a given immunotherapeutic or chemotherapeutic agent was determined based on the calculated drug response score as shown in Table 2.
Blood samples from a patient with stage II synovial sarcoma (suspected spindle cell tumour) were received and tested using a 6 drug panel.
Chemotherapeutic agents were tested as in Table 3.

Row | Compound | Drug response score, conc. 1 [1] | Drug response score, conc. 2 [1] | Drug response score, conc. 3 [1] | Drug response score, conc. 4 [1] | effectiveness on Circulating Tumour Cells under laboratory conditions [1] | Drug sensitivity as calculated by the assay (interpretation of Drug Response Scores) [1] | Drug response score, conc. 1 [2] | Drug response score, conc. 2 [2] | Drug response score, conc. 3 [2] | Drug response score, conc. 4 [2] | effectiveness on Circulating Tumour Cells under laboratory conditions ([2]; synovial sarcoma CTCs) | Drug sensitivity as calculated by the assay (interpretation of Drug Response Scores) ([2]; synovial sarcoma CTCs)
1 | COc1cc([C@@H]2c3cc4c(cc3[C@@H](O[C@@H]3O[C@@H]5CO[C@@H](C)O[C@H]5[C@H](O)[C@H]3O)[C@H]3COC(=O)[C@H]23)OCO4)cc(OC)c1O [Etoposide] | −0.2179 | −0.1141 | −0.1357 | −0.0050 | Sensitive S++ | Sensitive (S++) |  |  |  |  |  | 
2 | COc1cccc2c1C(=O)c1c(O)c3c(c(O)c1C2=O)C[C@@](O)(C(=O)CO)C[C@@H]3O[C@H]1C[C@H](N)[C@H](O)[C@H](C)O1 [Doxorubicin] |  |  |  |  |  |  | 0.9432 | 0.7234 | 0.8842 | 0.8405 | marginally less effective compared to other drugs | Sensitive (S+)
3 | Pembrolizumab | −0.0194 | 0.1577 | 0.0468 | −0.0364 | Sensitive S+ | Sensitive (S+) |  |  |  |  |  | 
4 | CC(=O)O[C@@]12CO[C@@H]1C[C@H](O)[C@@]1(C)C(=O)[C@H](O)C3=C(C)[C@@H](OC(=O)[C@H](O)[C@@H](NC(=O)OC(C)(C)C)c4ccccc4)C[C@@](O)([C@@H](OC(=O)c4ccccc4)[C@H]21)C3(C)C [Docetaxel] | 0.0585 | −0.1811 | 0.0514 | −0.1468 |  | Sensitive (S+) | 0.8633 | 0.7451 | 0.6992 | 0.4852 |  | Sensitive (S+)
5 | O=P1(NCCCl)OCCCN1CCCl (stereo not drawn) [Ifosfamide] |  |  |  |  |  |  | 0.7534 | 0.6369 | 0.7555 | 0.5976 |  | Sensitive (S+)
